# The source made the active and inactive calls. The calls are words filed in the database; no cut-off is given here.
# Key:
# [1] = Tmax in Sprague-Dawley rat at 5 mg/kg, po measured after 24 hrs by LC/MS/MS analysis; type: ADME, organism-based; conditions: in vivo
# [2] = target: T1, Macrophage-stimulating protein receptor (Homo sapiens, UniProt Q04912); test: Inhibition of RON (unknown origin)
# [3] = Half life in Sprague-Dawley rat at 5 mg/kg, po measured after 24 hrs by LC/MS/MS analysis; type: ADME, organism-based; conditions: in vivo
# [4] = AUC(0 to infinity) in Sprague-Dawley rat at 1 mg/kg, iv measured after 24 hrs by LC/MS/MS analysis; type: ADME, organism-based; parameters: time 24 hrs, dose 1 mg/kg, route iv; conditions: Sprague-Dawley, in vivo
# [5] = Half life in Sprague-Dawley rat at 1 mg/kg, iv measured after 24 hrs by LC/MS/MS analysis; type: ADME, organism-based; conditions: in vivo
# [6] = Volume of distribution at steady state in Sprague-Dawley rat at 1 mg/kg, iv measured after 24 hrs by LC/MS/MS analysis; type: ADME, organism-based; conditions: in vivo, read-out: Vdss
# HT-29 [7] = test: Antiproliferative activity against human HT-29 cells harbouring wild-type KRAS and RON delta 160 assessed as cell growth inhibition measured after 72 hrs by MTS assay; type: functional
# [8] = Metabolic stability in human liver microsomes assessed as parent compound remaining after 30 mins in presence of NADPH by LC/MS/MS analysis; type: ADME, Microsome; conditions: read-out: Stability
# [9] = Cmax in Sprague-Dawley rat at 5 mg/kg, po measured after 24 hrs by LC/MS/MS analysis; type: ADME, organism-based; parameters: dose 5 mg/kg, time 24 hrs, route po; conditions: in vivo
# SW-620 = test: Antiproliferative activity against human SW620 cells harbouring KRAS G12 V mutant and RON delta 155 assessed as cell growth inhibition measured after 72 hrs by MTS assay; type: functional
# [10] = Oral bioavailability in Sprague-Dawley rat at 5 mg/kg measured after 24 hrs by LC/MS/MS analysis; type: ADME, organism-based; conditions: Sprague-Dawley, in vivo
# [11] = AUC(0 to infinity) in Sprague-Dawley rat at 5 mg/kg, po measured after 24 hrs by LC/MS/MS analysis; type: ADME, organism-based; parameters: dose 5 mg/kg, time 24 hrs, route po; conditions: Sprague-Dawley, in vivo
# [12] = target: T1, Macrophage-stimulating protein receptor; test: Inhibition of N-terminal GST-tagged human recombinant RON (979 to 1400(end) residues) expressed in Sf21 cells incubated for 20 mins followed by ATP addition measured after 60 mins by TR-FRET based LanthaScreen kinase assay
# KM12C [13] = test: Antiproliferative activity against human KM12-C cells harbouring wild-type KRAS and RON delta 160 assessed as cell growth inhibition measured after 72 hrs by MTS assay; type: functional
# [14] = target: Hepatocyte growth factor receptor (Homo sapiens, UniProt P08581); test: Inhibition of c-Met (unknown origin)
# [15] = Clearance in Sprague-Dawley rat at 1 mg/kg, iv measured after 24 hrs by LC/MS/MS analysis; type: ADME, organism-based; conditions: Sprague-Dawley, in vivo
# HT-29 [16] = test: Antiproliferative activity against human HT-29 cells harbouring wild-type KRAS and RON delta 160 assessed as cell death rate at 5 uM measured after 48 hrs by trypan blue exclusion assay relative to control; type: functional
# KM12C [17] = test: Antiproliferative activity against human KM12-C cells harbouring wild-type KRAS and RON delta 160 assessed as cell death rate at 5 uM measured after 48 hrs by trypan blue exclusion assay relative to control; type: functional
# PANC-03-27 = test: Antiproliferative activity against human Panc 03.27 cells harbouring KRAS G12V mutant and RON delta 155 assessed as cell growth inhibition measured after 72 hrs by MTS assay; type: functional
# [18] = Antitumor activity against patient derived Colorectal cancer cell harbouring wild-type KRAS and RON delta 160 xenografted in BALB/c mouse assessed as tumor growth inhibition at 10 mg/kg, po qd measured after 28 days; type: functional; conditions: Homo sapiens, 672 h, time 28 day, read-out: TGI
# ASPC1 = test: Antiproliferative activity against human ASPC1 cells harbouring KRAS G12D mutant and RON delta 165 assessed as cell growth inhibition measured after 72 hrs by MTS assay; type: functional
# PANC-1 = test: Antiproliferative activity against human PANC-1 cells harbouring KRAS G12D mutant and RON delta 155 assessed as cell growth inhibition measured after 72 hrs by MTS assay; type: functional
# CAPAN-1 = test: Antiproliferative activity against human CAPAN-1 cells harbouring KRAS G12V mutant and RON delta 155 assessed as cell growth inhibition measured after 72 hrs by MTS assay; type: functional
# SW480 = test: Antiproliferative activity against human SW480 cells harbouring KRAS G12V mutant and RON delta 155 assessed as cell growth inhibition measured after 72 hrs by MTS assay; type: functional
# MIA PaCa-2 = test: Antiproliferative activity against human MIA PaCa-2 cells harbouring KRAS G12C mutant and RON delta 160 assessed as cell growth inhibition measured after 72 hrs by MTS assay; type: functional
# Hepatocyte growth factor receptor, sequence (P08581 whole entry): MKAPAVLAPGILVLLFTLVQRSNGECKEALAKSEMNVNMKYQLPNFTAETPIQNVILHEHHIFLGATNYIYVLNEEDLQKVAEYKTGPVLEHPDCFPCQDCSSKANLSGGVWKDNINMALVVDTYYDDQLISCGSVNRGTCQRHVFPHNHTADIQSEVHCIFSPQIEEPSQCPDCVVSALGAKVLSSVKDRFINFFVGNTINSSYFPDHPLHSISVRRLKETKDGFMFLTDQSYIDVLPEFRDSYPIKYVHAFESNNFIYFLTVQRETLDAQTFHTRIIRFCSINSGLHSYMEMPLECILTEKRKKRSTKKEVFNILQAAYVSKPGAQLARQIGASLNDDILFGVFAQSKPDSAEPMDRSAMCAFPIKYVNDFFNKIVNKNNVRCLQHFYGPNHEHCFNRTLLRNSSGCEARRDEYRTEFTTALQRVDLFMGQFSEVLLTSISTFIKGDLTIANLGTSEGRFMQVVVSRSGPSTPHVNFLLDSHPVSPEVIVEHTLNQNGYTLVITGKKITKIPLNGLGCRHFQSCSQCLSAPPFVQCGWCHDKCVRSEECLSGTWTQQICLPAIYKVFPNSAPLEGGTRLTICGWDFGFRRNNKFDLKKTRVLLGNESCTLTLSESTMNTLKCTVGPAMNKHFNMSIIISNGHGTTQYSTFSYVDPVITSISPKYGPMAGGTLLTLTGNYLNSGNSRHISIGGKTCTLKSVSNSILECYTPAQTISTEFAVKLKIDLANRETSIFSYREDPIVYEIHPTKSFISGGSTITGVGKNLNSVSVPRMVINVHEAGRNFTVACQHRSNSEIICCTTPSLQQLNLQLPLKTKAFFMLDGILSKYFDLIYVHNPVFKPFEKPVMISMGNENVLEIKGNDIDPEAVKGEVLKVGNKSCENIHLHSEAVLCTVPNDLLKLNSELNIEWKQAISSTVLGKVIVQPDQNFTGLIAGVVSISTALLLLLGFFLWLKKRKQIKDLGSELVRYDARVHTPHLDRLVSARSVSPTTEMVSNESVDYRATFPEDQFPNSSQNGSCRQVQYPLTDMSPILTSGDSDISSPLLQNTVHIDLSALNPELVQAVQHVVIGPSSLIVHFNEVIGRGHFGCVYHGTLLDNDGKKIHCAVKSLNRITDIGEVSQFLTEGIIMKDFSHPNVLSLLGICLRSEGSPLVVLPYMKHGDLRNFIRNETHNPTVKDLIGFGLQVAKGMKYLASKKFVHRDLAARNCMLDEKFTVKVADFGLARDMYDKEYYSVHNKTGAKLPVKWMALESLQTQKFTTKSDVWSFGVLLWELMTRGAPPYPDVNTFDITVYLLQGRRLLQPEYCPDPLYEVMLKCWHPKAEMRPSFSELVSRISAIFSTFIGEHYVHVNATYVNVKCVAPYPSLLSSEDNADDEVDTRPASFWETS
GI50 (HT-29 [7]) [nM],GI50 (SW-620) [nM],IC50 [12] [nM],SMILES,GI50 (KM12C [13]) [nM],further results
570,810,0.41,CCOc1ccn(-c2ccc(F)cc2)c(=O)c1C(=O)Nc1ccc(Oc2ccnc3cc(-c4cn(C)cn4)sc23)c(F)c1,27,Tmax [1]: 2.67 h; IC50 [2]: 9 nM; half-life [3]: 3.79 h; AUC(0-inf) [4]: 4370 ng·h/mL; half-life [5]: 3.03 h; Vd [6]: 0.64 L/kg; remaining at 0.5 h [8]: 49%; Cmax [9]: 810 ng/mL; bioavailability [10]: 30.5%; AUC(0-inf) [11]: 6670 ng·h/mL; IC50 [14]: 4 nM; clearance [15]: 3.83 mL/min/kg
650,540,0.82,CCOc1ccn(-c2ccc(F)cc2)c(=O)c1C(=O)Nc1ccc(Oc2ccnc3cc(-c4ccc(CN5CCC(F)C5)cn4)sc23)c(F)c1 (configuration not stated),16,–
590,440,–,CCOc1ccn(-c2ccc(F)cc2)c(=O)c1C(=O)Nc1ccc(Oc2ccnc3cc(-c4ccc(CNCCOC)cn4)sc23)c(F)c1,3400,–
1640,1030,0.16,CCOc1ccn(-c2ccc(F)cc2)c(=O)c1C(=O)Nc1ccc(Oc2ccnc3cc(-c4ccc(CN5CC(OC)C5)cn4)sc23)c(F)c1,27,–
7710,360,0.69,CCOc1ccn(-c2ccc(F)cc2)c(=O)c1C(=O)Nc1ccc(Oc2ccnc3cc(-c4ccc(CN5CCC(OC)C5)cn4)sc23)c(F)c1 (configuration not stated),23,–
650,830,2.83,CCOc1ccn(-c2ccc(F)cc2)c(=O)c1C(=O)Nc1ccc(Oc2ccnc3cc(-c4ccc(CCN5CCOCC5)cn4)sc23)c(F)c1,26,–
–,680,–,CCOc1ccn(-c2ccc(F)cc2)c(=O)c1C(=O)Nc1ccc(Oc2ccnc3cc(-c4ccc(CN5CCN(C)CC5)cn4)sc23)c(F)c1,9,–
3140,1550,0.48,CCOc1ccn(-c2ccc(F)cc2)c(=O)c1C(=O)Nc1ccc(Oc2ccnc3cc(-c4ccccn4)sc23)c(F)c1,22,–
1250,200,0.63,CCOc1ccn(-c2ccc(F)cc2)c(=O)c1C(=O)Nc1ccc(Oc2ccnc3cc(-c4ccc(CN5CC(F)C5)cn4)sc23)c(F)c1,16,–
970,780,0.48,CCOc1ccn(-c2ccc(F)cc2)c(=O)c1C(=O)Nc1ccc(Oc2ccnc3cc(-c4ccc(CN5CC(F)(F)C5)cn4)sc23)c(F)c1,24,–

# Continued, molecule first:
SMILES,GI50 (HT-29 [7]) [nM],GI50 (SW-620) [nM],IC50 [12] [nM],GI50 (KM12C [13]) [nM],further results
O=C(Nc1ccc(Oc2ccnc3cc(-c4ccc(CN5CCOCC5)cn4)sc23)c(F)c1)c1c(OCCC2CC2)ccn(-c2ccc(F)cc2)c1=O,860,2370,0.72,11,–
CN(C)CCOc1ccn(-c2ccc(F)cc2)c(=O)c1C(=O)Nc1ccc(Oc2ccnc3cc(-c4ccc(CN5CCOCC5)cn4)sc23)c(F)c1,970,1920,2.15,35,–
CCOc1ccn(-c2ccccc2)c(=O)c1C(=O)Nc1ccc(Oc2ccnc3cc(-c4ccc(CN5CCOCC5)cn4)sc23)c(F)c1,–,260,–,3,Activity (HT-29 [16]): Active; Activity (KM12C [17]): Active
CCOc1ccn(-c2ccc(F)cc2)c(=O)c1C(=O)Nc1ccc(Oc2ccnc3cc(-c4ccc(OCCN5CCOCC5)cn4)sc23)c(F)c1,2770,1560,2.39,38,–
CCOc1ccn(-c2ccc(Cl)cc2)c(=O)c1C(=O)Nc1ccc(Oc2ccnc3cc(-c4ccc(CN5CCOCC5)cn4)sc23)c(F)c1,600,580,–,25,–
CCOc1ccn(-c2ccc(F)cc2)c(=O)c1C(=O)Nc1ccc(Oc2ccnc3cc(-c4ccc(CN5CCC(F)CC5)cn4)sc23)c(F)c1,2440,560,1.82,17,–
CCOc1ccn(-c2cccc(F)c2)c(=O)c1C(=O)Nc1ccc(Oc2ccnc3cc(-c4ccc(CN5CCOCC5)cn4)sc23)c(F)c1,395,640,0.74,42,Activity (HT-29 [16]): Active; Activity (KM12C [17]): Active
CCOc1ccn(-c2ccc(F)cc2)c(=O)c1C(=O)Nc1ccc(Oc2ccnc3cc(-c4ccc(CN5CCOCC5)cn4)sc23)cc1Cl,1560,2840,–,6,–
CCCCOc1ccn(-c2ccc(F)cc2)c(=O)c1C(=O)Nc1ccc(Oc2ccnc3cc(-c4ccc(CN5CCOCC5)cn4)sc23)c(F)c1,840,1000,0.98,15,–
C[C@@H](Oc1cc(-c2cnn(C3CCNCC3)c2)cnc1N)c1c(Cl)ccc(F)c1Cl [CRIZOTINIB],4000,–,–,–,GI50 (PANC-03-27): 6350 nM; inhibition in vivo at 10 mg/kg [18]: 27.5%; GI50 (ASPC1): 2380 nM; GI50 (PANC-1): 2560 nM; GI50 (CAPAN-1): 5120 nM; GI50 (SW480): > 10000 nM; GI50 (MIA PaCa-2): 1460 nM
CCOc1ccn(-c2ccc(F)cc2)c(=O)c1C(=O)Nc1cc(F)c(Oc2ccnc3cc(-c4ccc(CN5CCOCC5)cn4)sc23)c(F)c1,642,1350,2.25,40,–
Cc1ccc(C(=O)Nc2ccc(Oc3cc4cnn(C)c4cc3-c3cn[nH]c3)c(F)c2)c(=O)n1-c1ccc(F)cc1 [MERESTINIB],–,–,–,–,IC50 [2]: 12 nM
CC(C)COc1ccn(-c2ccc(F)cc2)c(=O)c1C(=O)Nc1ccc(Oc2ccnc3cc(-c4ccc(CN5CCOCC5)cn4)sc23)c(F)c1,160,380,0.62,3,Activity (HT-29 [16]): Active; Activity (KM12C [17]): Active
CCOc1ccn(-c2ccc(F)cc2)c(=O)c1C(=O)Nc1ccc(Oc2ccnc3cc(-c4ccc(CN5CCC(F)(F)CC5)cn4)sc23)c(F)c1,660,7370,6,27,–
CN1CCC(COc2ccn(-c3ccc(F)cc3)c(=O)c2C(=O)Nc2ccc(Oc3ccnc4cc(-c5ccc(CN6CCOCC6)cn5)sc34)c(F)c2)C1 (configuration not stated),–,–,75.6,–,–
CN1CCC(Oc2ccn(-c3ccc(F)cc3)c(=O)c2C(=O)Nc2ccc(Oc3ccnc4cc(-c5ccc(CN6CCOCC6)cn5)sc34)c(F)c2)C1 (configuration not stated),5610,3660,5.47,55,–
CCCOc1ccn(-c2ccc(F)cc2)c(=O)c1C(=O)Nc1ccc(Oc2ccnc3cc(-c4ccc(CN5CCOCC5)cn4)sc23)c(F)c1,500,590,0.49,10,Activity (HT-29 [16]): Active; Activity (KM12C [17]): Active
COc1ccc2c(Oc3ccc(NC(=O)c4c(C)n(CC(C)(C)O)n(-c5ccccc5)c4=O)cc3F)ccnc2c1,–,–,–,–,IC50 [14]: 9 nM
CCOc1ccn(-c2ccc(F)cc2)c(=O)c1C(=O)Nc1ccc(Oc2ccnc3cc(-c4ccc(CN5CCOCC5)cn4)sc23)c(Cl)c1,660,1090,–,15,–
CCOc1ccn(-c2ccc(F)cc2)c(=O)c1C(=O)Nc1ccc(Oc2ccnc3cc(-c4ccc(CN5CCC(F)(F)C5)cn4)sc23)c(F)c1,4880,620,0.86,9,–
CCOc1ccn(-c2ccc(C(F)(F)F)cc2)c(=O)c1C(=O)Nc1ccc(Oc2ccnc3cc(-c4ccc(CN5CCOCC5)cn4)sc23)c(F)c1,–,–,17.3,–,–
CCOc1ccn(-c2ccc(F)cc2)c(=O)c1C(=O)Nc1ccc(Oc2ccnc3cc(-c4ccc(CN5CCC(OC)CC5)cn4)sc23)c(F)c1,1770,700,0.73,19,–
